Assay results as given in patent US5041567A, “Antibacterial monic acid derivatives” (Beecham Group plc, priority 1982, dated 1991).
≈ marks a conversion by molar mass, not a printed value. Where two headings read alike, the source gives them in different places.

Experiments:
M. suipneumoniae NB12 = assay: MIC against mycoplasma in vitro; type: cell-based; conditions: Mesomycoplasma hyopneumoniae
M. suipneumoniae Str. 11 = assay: MIC against mycoplasma in vitro; type: cell-based; conditions: Mesomycoplasma hyopneumoniae
M. suipneumoniae MS 16 = assay: MIC against mycoplasma in vitro; type: cell-based; conditions: Mesomycoplasma hyopneumoniae, MS16, 144 h
M. suipneumoniae TAM 6N = assay: MIC against mycoplasma in vitro; type: cell-based; conditions: Mesomycoplasma hyopneumoniae, TAM6N, 144 h
M. bovis NCTC 10131 = assay: microbe, parasite or virus in culture; type: cell-based; conditions: NCTC10131, 144 h
[1] = tested on: M. bovigenitalium ATCC 14173; assay: MIC against mycoplasma in vitro; type: cell-based; conditions: 144 h
M. gallisepticum S6 = assay: MIC against mycoplasma in vitro; type: cell-based; conditions: Mycoplasmoides gallisepticum, 144 h; M. gallisepticum S6; 6 days, 37° C.; read-out: MIC
E. coli NCTC 10418 [2] = assay: MIC against human bacteria in vitro; type: cell-based; conditions: Escherichia coli
P. mirabilis 889 = assay: MIC against human bacteria in vitro; type: cell-based
K. aerogenes A = assay: MIC against human bacteria in vitro; type: cell-based; conditions: Klebsiella aerogenes; K. aerogenes A; 5% chocolated horse blood agar, 18 hours; read-out: MIC
[3] = tested on: Ps. aeruginosa NCTC 10662; assay: MIC against human bacteria in vitro; type: cell-based; conditions: Pseudomonas aeruginosa, NCTC10662; Ps. aeruginosa NCTC 10662; 5% chocolated horse blood agar, 18 hours; read-out: MIC
[4] = tested on: Neisseria catarrhalis 1502; assay: MIC against human bacteria in vitro; type: cell-based; conditions: Neisseria catarrhalis 1502; 5% chocolated horse blood agar, 18 hours; read-out: MIC
Strep. faecalis I = assay: MIC against human bacteria in vitro; type: cell-based; conditions: Enterococcus faecalis; Strep. faecalis I; 5% chocolated horse blood agar, 18 hours; read-out: MIC
[5] = tested on: Strep. pyogenes R80/421-A; assay: MIC against human bacteria in vitro; type: cell-based; conditions: Streptococcus pyogenes; Strep. pyogenes R80/421-A; 5% chocolated horse blood agar, 18 hours; read-out: MIC
Strep. spp. 64/848-C = assay: MIC against human bacteria in vitro; type: cell-based; conditions: Strep. spp. 64/848-C; 5% chocolated horse blood agar, 18 hours; read-out: MIC
E. coli NCTC 10418 [6] = assay: MIC against veterinary bacteria in vitro; conditions: Escherichia coli, NCTC10418, 18 h
Procedure: (§1) The activity of the compounds of the Examples against various veterinarily important bacteria, was assayed in vitro using two-fold serial dilutions in Diagnostic Sensitivity Test Agar inoculated with 10^4 organisms.

E. coli E1 = assay: MIC against veterinary bacteria in vitro; conditions: Escherichia coli, E1, 18 h
Procedure: as §1

S. typhimurium S18 = assay: MIC against veterinary bacteria in vitro; conditions: Salmonella enterica, TYPHIMURIUM, 18 h
Procedure: as §1

Bord. bronchiseptica B09 = assay: MIC against veterinary bacteria in vitro; conditions: Bordetella bronchiseptica, B09, 18 h
Procedure: as §1

[7] = tested on: Staph. aureus 152 (pen. sens); assay: MIC against veterinary bacteria in vitro; conditions: Staphylococcus aureus, 18 h
Procedure: as §1

Strep. uberis SPU1 = assay: MIC against veterinary bacteria in vitro; conditions: Streptococcus uberis, SPU1, 18 h
Procedure: as §1

Strep. dysgalactiae SPD1 = assay: MIC against veterinary bacteria in vitro; conditions: Streptococcus dysgalactiae, SPD1, 18 h
Procedure: as §1

[8] = tested on: Haemophilus influenzae Q1; assay: MIC against human bacteria in vitro; type: cell-based; conditions: Haemophilus influenzae Q1; 5% chocolated horse blood agar, 18 hours; read-out: MIC
[9] = M. bovigenitalium ATCC 14173, 6 days, 37° C., read-out: MIC
[10] = NCTC10418, E. coli NCTC 10418, agar with 5% chocolated horse blood, 18 hours, 37° C., read-out: MIC
[11] = Proteus mirabilis, P. mirabilis 889, 5% chocolated horse blood agar, 18 hours, read-out: MIC
[12] = 144 h, M. suipneumoniae NB12, Friis broth, 0.9% agarose, 6 days, 37° C., read-out: MIC
[13] = 144 h, M. suipneumoniae Str. 11, 6 days, 37° C., read-out: MIC
[14] = M. suipneumoniae MS 16, 6 days, 37° C., read-out: MIC
[15] = M. suipneumoniae TAM 6N, 6 days, 37° C., read-out: MIC

Row | Structure (SMILES) | MIC (M. suipneumoniae NB12; NB12, 144 h) [mg/L] | MIC (M. suipneumoniae Str. 11; STR.11, 144 h) [mg/L] | MIC (M. suipneumoniae MS 16) [mg/L] | MIC (M. suipneumoniae TAM 6N) [mg/L] | MIC (M. bovis NCTC 10131) [mg/L] | MIC [1, 9] [mg/L] | MIC (M. gallisepticum S6) [mg/L] | MIC (E. coli NCTC 10418 [2]; [10]) [mg/L] | MIC (P. mirabilis 889; [11]) [mg/L] | MIC (K. aerogenes A) [mg/L] | MIC [3] [mg/L] | MIC [4] [mg/L] | MIC (Strep. faecalis I) [mg/L] | MIC (E. coli NCTC 10418 [6]) [mg/L] | MIC (E. coli E1) [mg/L] | MIC (S. typhimurium S18) [mg/L] | MIC (Bord. bronchiseptica B09) [mg/L] | MIC [7] [mg/L] | MIC (Strep. uberis SPU1) [mg/L] | MIC (Strep. dysgalactiae SPD1) [mg/L] | other results
1 | C/C(=C\c1cc(C)on1)C[C@@H]1OC[C@H](C[C@@H]2O[C@H]2[C@@H](C)[C@H](C)O)[C@@H](O)[C@H]1O [Example 33, 5-Methyl-3-(1-normon-2-yl) isoxazole A] | 2.5 (≈ 6.55 µM) | 1 (≈ 2.62 µM) | 1 (≈ 2.62 µM) | 2.5 (≈ 6.55 µM) | 0.25 (≈ 0.655 µM) | 0.5 (≈ 1.31 µM) | > 10 | > 128 | > 128 | > 128 | > 128 | 4 (≈ 10.5 µM) | > 128 | > 80 | > 80 | > 80 | > 80 | 2.5 (≈ 6.55 µM) | 5 (≈ 13.1 µM) | 5 (≈ 13.1 µM) | MIC [5]: 8 mg/L (≈ 21 µM); MIC (Strep. spp. 64/848-C): 32 mg/L (≈ 83.9 µM)
2 | C/C(=C\c1cc(-c2ccccc2)on1)C[C@@H]1OC[C@H](C[C@@H]2O[C@H]2[C@@H](C)[C@H](C)O)[C@@H](O)[C@H]1O [Example 34, 3-(1-Normon-2-yl)-5-phenylisoxazole A] | 2.5 (≈ 5.64 µM) | 1 (≈ 2.25 µM) | 1 (≈ 2.25 µM) | 2.5 (≈ 5.64 µM) | 0.25 (≈ 0.564 µM) |  | > 10 | > 128 | > 128 | > 128 | > 128 | 4 (≈ 9.02 µM) | > 128 | > 80 | > 80 | > 80 | 40 (≈ 90.2 µM) | 2.5 (≈ 5.64 µM) | 5 (≈ 11.3 µM) | 10 (≈ 22.5 µM) | MIC [1]: 1 mg/L (≈ 2.25 µM); MIC [5]: 8 mg/L (≈ 18 µM); MIC (Strep. spp. 64/848-C): 64 mg/L (≈ 144 µM)
3 | C/C(=C\c1nc(C)c(C)o1)C[C@@H]1OC[C@H](C[C@@H]2O[C@H]2[C@@H](C)[C@H](C)O)[C@@H](O)[C@H]1O [Example 39, 4,5-Dimethyl-2-(1-normon-2-yl)oxazole A] |  |  |  |  | 5 (≈ 12.6 µM) | 5 (≈ 12.6 µM) | > 10 |  |  | > 100 | > 100 | 25 (≈ 63.2 µM) | > 100 | > 80 | > 80 | > 80 | > 80 | > 80 | > 80 | > 80 | MIC (M. suipneumoniae NB12; [12]): > 10 mg/L; MIC (M. suipneumoniae Str. 11; [13]): > 10 mg/L; MIC (M. suipneumoniae MS 16; [14]): > 10 mg/L; MIC (M. suipneumoniae TAM 6N; [15]): > 10 mg/L; MIC (E. coli NCTC 10418 [2]; NCTC10418, 18 h): > 100 mg/L; MIC (P. mirabilis 889; Proteus mirabilis, 889, 18 h): > 100 mg/L; MIC [8]: 5 mg/L (≈ 12.6 µM)
4 | C/C(=C\c1nc(C)c(-c2ccccc2)o1)C[C@@H]1OC[C@H](C[C@@H]2O[C@H]2[C@@H](C)[C@H](C)O)[C@@H](O)[C@H]1O [Example 40, 4-Methyl-2-(1-normon-2-yl)-5-phenyloxazole A] |  |  |  |  | 5 (≈ 10.9 µM) | 10 (≈ 21.9 µM) | > 10 |  |  | > 100 | > 100 | 50 (≈ 109 µM) | > 100 | > 80 | > 80 | > 80 | > 80 | 80 (≈ 175 µM) | 40 (≈ 87.4 µM) | > 80 | MIC (M. suipneumoniae NB12; [12]): > 10 mg/L; MIC (M. suipneumoniae Str. 11; [13]): > 10 mg/L; MIC (M. suipneumoniae MS 16; [14]): > 10 mg/L; MIC (M. suipneumoniae TAM 6N; [15]): > 10 mg/L; MIC (E. coli NCTC 10418 [2]; NCTC10418, 18 h): > 100 mg/L; MIC (P. mirabilis 889; Proteus mirabilis, 889, 18 h): > 100 mg/L; MIC [8]: 50 mg/L (≈ 109 µM)
